pEC50: −log10 of the molar value. A value given as a limit tells only on which side of the number the result lay.

In assay [1] the test system is Human immunodeficiency virus 1. The experiment in a line: Antiviral activity against wild-type HIV1 in MT2 cells by MTT assay. It counts as functional, organism-based. The settings on record: for pEC50: Human immunodeficiency virus 1, MT2, read-out: EC50. (In general: Tetrazolium dyes change colour on reduction, which living cells bring about.)
In assay [2] the test system is MT2. Kind of assay: Cytotoxicity against MT2 cells. It counts as functional. The following applies: Homo sapiens.

The term CC50 denotes the concentration giving 50% cytotoxicity. `CC(C)=CCOc1cc(Nc2ccccn2)ccc1C#N`: the EC50 entry in assay [1] is reported as “Not Active”. For the same molecule, the half-maximal cytotoxic concentration (CC50) in assay [2] stood at 0.29 µM. Consider `CC(C)=CCOc1cc(Nc2nccc(N)n2)ccc1Cl`, for which the CC50 in assay [2] is 0.5 µM.

On to `CC(C)=CCOc1cc(Nc2ncccn2)ccc1C#N`, for which, in assay [1], the EC50 result was “Not Active”. Further, in assay [2], the CC50 was under 0.2 µM. The pEC50 is the negative decadic logarithm of the EC50, by convention in mol/L. On to `CCc1ccc(Nc2nccs2)cc1OCC=C(C)C`, for which the negative logarithm of the EC50 (pEC50) in assay [1] was 5.30. The CC50 in assay [2] came out at 31 µM. Regarding `CC(C)=CCOc1cc(Nc2nccs2)ccc1C`, the pEC50 in assay [1] is 5.52. In assay [2], this molecule gave a cytotoxic concentration (CC50) of 17 µM. Consider `CC(C)=CCOc1cc(Nc2nccc(C(F)(F)F)n2)ccc1Cl`, for which, in assay [1], the pEC50 was 7.19. Also, in assay [2], it took 2.5 µM to reach half-maximal cytotoxicity (CC50).

In the case of `CCCc1ccc(Nc2nccs2)cc1OCC=C(C)C`, in assay [1], the pEC50 was 4.64. In assay [2], this molecule had a CC50 of 23 µM. Consider `CC(C)=CCOc1cc(Nc2ccccn2)ccc1C`, for which the EC50 entry in assay [1] is listed as “Not Active”. The molecule also returned a CC50 in assay [2] of 35 µM. As for `CC(C)=CCOc1cc(Nc2nccs2)ccc1C(C)C`, the EC50 entry in assay [1] is recorded as “Not Active”. This molecule registered a CC50 in assay [2] of 31 µM. For the molecule `CC(C)=CCOc1cc(Nc2ncccn2)ccc1Cl`, the CC50 in assay [2] amounted to 2.5 µM. Take `CC(C)=CCOc1cccc(Nc2ncccn2)c1`: in assay [1], the pEC50 is 4.52. The same molecule had a CC50 in assay [2] of over 100 µM. With `CC(C)=CCOc1cc(Nc2ncccn2)ccc1C`, the pEC50 in assay [1] is 5.55. In assay [2], the CC50 stood at 78 µM. As to `CC(C)=CCOc1cc(Nc2nccs2)ccc1Cl`, the pEC50 in assay [1] is 6.52. In assay [2], this molecule yielded a CC50 of 26 µM. Regarding `CC(C)=CCOc1cc(Nc2nccc(C)n2)ccc1Cl`, the EC50 entry in assay [1] is on record as “Not Active”. For the same molecule, in assay [2], the CC50 was under 0.2 µM. For `CC(C)=CCOc1cccc(Nc2nccs2)c1`, the pEC50 in assay [1] is 5.00. It took 23 µM to reach half-maximal cytotoxicity in assay [2] (CC50).

For the molecule `COc1ccc(Nc2nccs2)cc1OCC=C(C)C`, the pEC50 in assay [1] was 5.42. For the same molecule, it took 42 µM to reach half-maximal cytotoxicity in assay [2] (CC50). Molecule `COc1ccnc(Nc2ccc(Cl)c(OCC=C(C)C)c2)n1` registered a CC50 in assay [2] of 9 µM.

Regarding `CC(C)=CCOc1cc(Nc2nccs2)ccc1C#N`, the pEC50 in assay [1] is 6.68. In addition, in assay [2], half-maximal cytotoxicity (CC50) was put at 0.5 µM. On to `CC(C)=CCOc1cc(Nc2ccccn2)ccc1Cl`, for which the midpoint of cytotoxicity in assay [2], the CC50, lay at 15 µM. Regarding `CSc1ccnc(Nc2ccc(Cl)c(OCC=C(C)C)c2)n1`, in assay [2], the midpoint of cytotoxicity, the CC50, lay at 2.8 µM. For the molecule `Cc1cc(C#N)cc(C)c1Oc1nc(Nc2ccc(C#N)cc2)nc(N)c1Br` [ETRAVIRINE], the pEC50 in assay [1] is over 8.70. The CC50 in assay [2] is over 1 µM. Turning to `Cc1ccnc2c1NC(=O)c1cccnc1N2C1CC1` [NEVIRAPINE], the CC50 in assay [2] was over 10 µM.

`Cc1cn([C@H]2C=C[C@@H](CO)O2)c(=O)[nH]c1=O` [STAVUDINE]: the pEC50 in assay [1] was 5.52. For the same molecule, the CC50 in assay [2] is over 100 µM. In the case of `CC(C)=CCOc1cc(NC(=S)c2ccoc2C)ccc1Cl` [UC 781], in assay [1], the negative-log EC50 (pEC50) is 8.70. The molecule also came in with a CC50 in assay [2] of over 100 µM.

The record behind these values is ChEMBL document CHEMBL1149373, “Computer-aided design of non-nucleoside inhibitors of HIV-1 reverse transcriptase” (Bioorg Med Chem Lett, 2006).
